In series [1] the test system is HFD-fed mice. As to the kind of experiment: HFD-fed mice, TPH or sitagliptin for 8 weeks. Type of series: in vivo. The note with it: sitagliptin 12.5 mg/kg daily oral gavage.
The test system of the next series is C57BL/6J male SPF mice. As to the kind of experiment: Preliminary safety evaluation in mice. Type of series: in vivo. The note with it: 10 mg/kg and 100 mg/kg, gavage 3 times per week, 4 weeks, n = 6 mice/group.
The test system of the next series is HFD-induced obese mice. As to the kind of experiment: HFD-induced obese mice, VAMP and/or benzydamine for 4 weeks. Type of series: in vivo. The note with it: HFD 8 weeks, then VAMP 50 mg/kg three times per week for 4 weeks, n = 6.
The test system of series [2] is HFD-fed mice. Type of series: in vivo. The note with it: 8 weeks.
Series [3] relates to HFD-fed mice. As to the kind of experiment: HFD-fed obese mice, VAMP for 1 week. The series is classed as in vivo. The note with it: HFD 8 weeks, then VAMP 50 mg/kg daily for 1 week, vs vehicle, n = 6.
The subject of series [4] is other strains of Bacteroides. As to the kind of experiment: Single-strain growth in culture. The note with it: VAMP 50 μM vs PBS, anaerobic, 48 h, OD600 ratio. Type of series: cell-based.
Another series deals with A. muciniphila. The series is classed as in vivo. The note with it: HFD-fed mice, VAMP 50 mg/kg oral gavage, 8 weeks; colonic contents, 16S rRNA.
For the next series, the system named is ob/ob mice. As to the kind of experiment: ob/ob mice, VAMP for 4 weeks. The note with it: VAMP 50 mg/kg daily oral gavage, n = 6. Type of series: in vivo.
Setting [5] is: HFD plus VAMP 50 mg/kg daily oral gavage, vs HFD-fed control.
Where [6] appears, read: HFD plus VAMP 50 mg/kg daily oral gavage, vs vehicle, n = 6.

The record followed here is doi:10.1101/2024.07.22.604525v1 (bioRxiv, 2024).

Like-named read-outs stand apart in the source and are kept apart here. Where a SMILES comes first, the peptide text is derived from it.

As to `N[C@@H](CC(=O)N1CCn2c(nnc2C(F)(F)F)C1)Cc1cc(F)c(F)cc1F` [sitagliptin, Sitagliptin], in the series on HFD-fed mice [1], the “glucose metabolism in obese mice” value was “effectively improved glucose metabolism”.
Consider `CSCC[C@H](NC(=O)[C@H](C)NC(=O)[C@@H](N)C(C)C)C(=O)N1CCC[C@H]1C(=O)O` [VAMP] (H-VAMP-OH; N-terminus and C-terminus assumed), for which, in the series on C57BL/6J male SPF mice, the “side effects in mice (body weight, food intake, ALT, AST, UREA, CRE)” value was “did not induce any obvious side effects”. Moreover, the body weight entry with HFD-induced obese mice is “significantly decreased”. In addition, in the series with HFD-fed mice [2] (Alcian blue-stained sections, HFD plus VAMP 50 mg/kg), the “thickness of colonic mucus layer” value is “increased thickness of mucus layer”. Also, in the series with HFD-fed mice [2] (setting [5]), the “plasma IL-1β level” value is given as “significantly reduced”, the “plasma TNF-α level” value is reported as “significantly reduced” and the “plasma endotoxin (LPS) level” value is on record as “significantly reduced”. Further, in the series on HFD-fed mice [2] (HFD plus VAMP 50 mg/kg daily oral gavage, vs vehicle), the “fat weight/body weight ratio” value is on record as “significantly decreased”. For the same molecule, the “size of adipocytes in white adipose tissue” value in the series on HFD-fed mice [2] (HFD plus VAMP 50 mg/kg daily oral gavage, vs vehicle, 3 mice per group) is given as “significantly decreased”. Moreover, in the series on HFD-fed mice [2] (setting [6]), the FBG result is given as “significantly decreased”, the body weight entry is listed as “significantly decreased”, the fasting insulin level entry is given as “decreased fasting insulin levels” and the “glucose tolerance (OGTT)” value is reported as “improved glucose tolerance”. Moreover, in the series on HFD-fed mice [2] (setting [6]), the “intestinal active GLP-1 level” value is recorded as “significantly increased”, the “intestinal total GLP-1 level” value is on record as “without affecting”, the “plasma active GLP-1 level” value is “significantly increased” and the “plasma total GLP-1 level” value is recorded as “without affecting”. Besides, the “expression of intestinal Tjp1, Ocln, Cldn3, and Muc2” value in the series with HFD-fed mice [2] (colonic tissue mRNA, RT-qPCR, HFD plus VAMP 50 mg/kg) is “upregulate”. In addition, in the series on HFD-fed mice [3], the energy intake entry is reported as “no significant differences”, the “plasma active GLP-1 level” value was “increased” and the “plasma total GLP-1 level” value is recorded as “without altering”. The “growth of other strains of Bacteroides” value in series [4] is listed as “failed to stimulate the growth”. In addition, the “abundance of Akkermansia (genus level)” value with A. muciniphila was “significantly increased”. In the series with ob/ob mice, the FBG entry was “steadily decreased”, the body weight entry is “no significant difference”, the energy intake entry is “no significant difference” and the “intestinal DPP-IV activity” value is recorded as “suppressed intestinal DPP-IV activity”. For the same molecule, in the series with ob/ob mice, the “intestinal active GLP-1 level” value is on record as “increased the levels” and the “plasma active GLP-1 level” value is reported as “increased the levels”.
